The structures appear in SMILES notation.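 Assay format: 96-well plates, 48-hour exposure. The concentration for 50% growth inhibition is given as GI50. TGI is the concentration that stops growth completely.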

What all share (experiment): NCI anticancer screen, dose series, 48 h
Assay [1] has as its system A549 NSCLC.
Assay [2] relates to IGROV1 ovarian.
Assay [3] concerns NCI-H226 lung.
The test system of assay [4] is NCI-H23 lung.
Assay [5] relates to NCI-H460 lung.
The test system of assay [6] is OVCAR-3 ovarian.
Assay [7] relates to OVCAR-4 ovarian.
Assay [8] relates to OVCAR-8 ovarian.
In assay [9] the test system is RPMI-8226 leukemia.
In assay [10] the test system is SK-OV-3 ovarian.

As to `COC(=O)COc1ccccc1/C=C1/N=C(c2ccccc2)N(c2c(C)n(C)n(-c3ccccc3)c2=O)C1=O`, the GI50 was more than 100 µM in assay [1]; 46.1 µM in [2]; more than 100 µM in [3]; more than 100 µM in assay [4]; more than 100 µM in assay [5]; 20.9 µM in assay [6]. For the same compound, the GI50 in assay [7] was 75.1 µM; in [8], more than 100 µM; in assay [9], 28.9 µM; in [10] it was more than 100 µM. The TGI in [1] was more than 100 µM; in assay [2] it was more than 100 µM; in assay [3] it was more than 100 µM; in assay [4], more than 100 µM; in assay [5] it was more than 100 µM; in [6], 50.9 µM. Moreover, the TGI in [7], in assay [8], in [9] and in assay [10] was more than 100 µM in each case.

For `Cc1cc2c3c(nc4ccccc42)C(=O)c2cccnc2-c3n1`, the GI50 in [1] was 0.372 µM; in [2], 0.0658 µM; in assay [3], 0.942 µM; in [4], 0.142 µM; in [5], 0.162 µM; in assay [7], 1.28 µM. Besides, the GI50 was 0.453 µM in [8], 0.099 µM in assay [9] and 0.25 µM in assay [10]. The TGI in [1] was 1.84 µM; in assay [2], 0.383 µM; in [3] it was 3.26 µM; in assay [4], 0.466 µM; in assay [5], 1.06 µM; in assay [6], 0.0263 µM. Besides, the TGI in assay [7] came to 4.27 µM; in assay [9] it was 0.46 µM; in assay [10], 1.07 µM.

`Nc1nc(N)c2c(Cl)c(CNc3ccc(Cl)c(Cl)c3)ccc2n1`: the TGI in [1] came to 14.5 µM; in assay [2] it was 13.4 µM; in assay [3], 33.7 µM; in [4], 5.43 µM; in [5], 11.4 µM; in assay [6] it was 11 µM. In addition, the TGI was found to be 16.9 µM in assay [7], 16 µM in [8], 12.5 µM in assay [9] and 16.1 µM in [10].

In the case of `Oc1ccc(/C=N/NC(=S)Nc2ccccc2)nc1`, the GI50 is 2.33 µM in [1]; 3.68 µM in assay [2]; 2.33 µM in assay [3]; 3.34 µM in [4]; 2.77 µM in [5]; 0.405 µM in assay [6]. For the same compound, the GI50 in assay [7] is 0.579 µM; in assay [8], 0.586 µM; in assay [9], 3.44 µM; in [10], 0.748 µM. Also, the TGI was 26.3 µM in assay [1]; more than 100 µM in assay [2]; 6.83 µM in assay [3]; more than 100 µM in assay [4]; more than 100 µM in assay [5]; more than 100 µM in assay [6]. Besides, the TGI in assay [7] is more than 100 µM; in assay [8] it was more than 100 µM; in assay [9] it was more than 100 µM; in [10], 32.6 µM.

On to `C/C(=C\CNc1ncnc2c1ncn2C1CCCCO1)COP(=O)(O)O` (stereo not drawn), for which the TGI in [1], in assay [2], in assay [3], in assay [4], in [5] and in assay [6] was more than 100 µM in each case. Further, the TGI in assay [7], in assay [8], in assay [9] and in assay [10] was more than 100 µM each time.

Regarding `COc1cc(C(=O)/C=C/c2cccnc2Nc2ccc(Cl)cc2)cc(OC)c1OC`, the GI50 is 1.63 µM in [1]; 2.24 µM in [2]; 1.16 µM in assay [3]; 1.58 µM in assay [4]; 1.92 µM in [5]; 1.31 µM in assay [6]. The GI50 in [7] was 1.51 µM; in [8] it was 1.63 µM; in [9], 0.655 µM; in assay [10], 1.72 µM. Moreover, the TGI in [1] is 3.6 µM; in assay [2], 4.78 µM; in [3] it was 2.45 µM; in assay [4], 3.24 µM; in assay [5] it was 3.88 µM; in assay [6], 2.62 µM. The TGI is 2.98 µM in assay [7], 4.31 µM in [8], 5.01 µM in assay [9] and 3.29 µM in assay [10].

With `COC(=O)C1=C(C)N(NC(N)=O)C2(N)N(NC(N)=O)C(C)=C(C(=O)OC)C12C#N` (stereo not drawn), the TGI in assay [1], in assay [2], in assay [3], in [4], in assay [5] and in assay [6] was more than 100 µM throughout. Also, the TGI in assay [7], in [8], in assay [9] and in [10] was more than 100 µM throughout.

Consider `COC(=O)NC1=Nc2ccccc2C(=O)NN1`, for which the TGI in assay [1], in assay [2], in [3], in assay [4], in [5] and in [6] was more than 100 µM throughout. The TGI in [7], in assay [8], in [9] and in [10] was more than 100 µM throughout.

In the case of `O=C(O)c1cc(-c2ccc(-c3ccccc3)cc2)nc2cc3ccccc3cc12`, the TGI in [1], in assay [2], in [3], in assay [4], in assay [5] and in [6] was more than 100 µM each time. In addition, the TGI in assay [7], in assay [8], in [9] and in assay [10] was more than 100 µM each time.

Regarding `COc1cc2c3c(n(CCCNCCCCN)c(=O)c2cc1OC)-c1cc2c(cc1C3=O)OCO2`, the GI50 in [1] is 5.48 µM; in assay [2], more than 21.2 µM; in assay [3], 1.6 µM; in assay [4], 1.63 µM; in [5], less than 0.041 µM; in assay [6] it was 2.77 µM. Also, the GI50 is 7.31 µM in assay [7], 1.91 µM in assay [8], 0.355 µM in [9] and 9.15 µM in assay [10]. The TGI was 25 µM in [1]; more than 100 µM in [2]; 7.44 µM in [3]; 10.7 µM in [4]; 7.38 µM in assay [5]; 14.1 µM in assay [6]. Besides, the TGI in assay [7] was 29.9 µM; in assay [8], 8.6 µM; in [9], 13.1 µM; in [10], more than 46.6 µM.

The values above are taken from PubChem BioAssay (NCI).
